Measured values from the supplement of paper PMC10307832.

Compound: CNC(=O)c1cc(Oc2ccc(NC(=O)Nc3ccc(Cl)c(C(F)(F)F)c3)cc2)ccn1 [Sorafenib]
Test: relative viability (nuclei count vs DMSO), 5 days (fraction); higher = more cells survive
Summary of the method: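 Viability was read as treated-well nuclei divided by vehicle-well nuclei, using the median across plates. Lung cancer cell lines in 1536-well plates were kept overnight at 37 °C, pinned with five √10-spaced library-drug doses, and after 5 days were Hoechst-stained, imaged at 4× and counted in MetaXpress. Plates passed only with control CV below 25% and at least one doubling.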

Row | Cell Line | relative viability (0.08 µM) | relative viability (0.253 µM) | relative viability (2.53 µM) | relative viability (8 µM)
1 | 201T | 0.975 | 0.943 | 1.07 | 0.918
2 | A-427 | 0.999 | 0.902 | 0.94 | 0.752
3 | ABC-1 | 1.07 | 0.808 | – | 0.584
4 | BEN | 1.08 | 0.826 | 1.15 | 0.823
5 | CAL-12T | 1.01 | 0.882 | 0.985 | 0.644
6 | COR-L23 | 1.04 | 0.926 | 0.957 | 0.781
7 | COR-L 105 | 1.11 | 0.867 | 1.15 | 0.691
8 | ChaGo-K-1 | – | 0.915 | 1 | 0.867
9 | EKVX | 1.05 | 0.954 | 0.963 | 0.952
10 | EMC-BAC-2 | 1.05 | 0.786 | 0.938 | 0.873
11 | EPLC-272H | 1.19 | 0.842 | 1.09 | 0.774
12 | H3255 | 1.07 | 0.89 | 0.99 | 0.755
13 | HARA | 1.17 | 0.79 | 1.07 | 0.767
14 | HCC-15 | 1.05 | 0.912 | 1.05 | 0.69
15 | HCC-44 | 0.989 | 0.886 | 0.941 | 0.901
16 | HCC-78 | 1.13 | 0.953 | 1.05 | 1.05
17 | HCC-366 | 1 | 1.02 | 1 | 0.999
18 | HCC-827 | 1.06 | 0.954 | 1.02 | 0.956
19 | HOP-62 | 0.986 | 0.858 | 0.764 | 0.589
20 | LC-2-ad | 1.03 | 0.834 | 0.939 | 0.762
21 | LCLC-97TM1 | 1.16 | 0.778 | – | 0.703
22 | LCLC-103H | 0.975 | 0.946 | 1.13 | 1.03
23 | LK-2 | 1.09 | 0.766 | 0.848 | 0.494
24 | LOU-NH91 | 1.1 | 0.967 | 1.17 | –
25 | LU99A | 0.997 | 0.94 | 0.777 | 0.696

Row | Cell Line | relative viability (0.08 µM) | relative viability (0.253 µM) | relative viability (2.53 µM) | relative viability (8 µM)
26 | LXF-289 | 1.06 | 0.97 | 1.03 | 0.958
27 | NCI-H23 | 1 | 0.875 | 0.974 | 0.704
28 | NCI-H322M | 1.14 | 0.918 | 1.3 | 1.27
29 | NCI-H358 | 1.04 | 1.05 | 1.01 | 0.688
30 | NCI-H441 | 1.05 | 0.783 | 0.908 | 0.584
31 | NCI-H460 | 1.01 | 0.918 | 1 | 0.654
32 | NCI-H520 | 0.93 | 0.823 | – | 0.75
33 | NCI-H522 | 1.04 | 0.877 | 0.865 | 0.648
34 | NCI-H596 | 0.993 | 1.03 | 1.18 | 0.969
35 | NCI-H647 | 1.05 | 0.763 | 0.853 | 0.492
36 | NCI-H650 | 1.08 | 0.82 | 0.83 | 0.78
37 | NCI-H661 | – | 1.02 | 0.97 | 0.713
38 | NCI-H727 | 1.15 | 0.768 | 0.88 | 0.691
39 | NCI-H838 | 1.04 | 0.996 | 1.17 | 0.994
40 | NCI-H1355 | 1.02 | 0.921 | 0.958 | 0.788
41 | NCI-H1395 | 1.1 | 0.76 | 1.02 | 0.775
42 | NCI-H1437 | 0.999 | 0.872 | 0.945 | 0.583
43 | NCI-H1563 | 1.07 | 0.958 | 1.02 | 0.779
44 | NCI-H1650 | 1.17 | 0.909 | 1.31 | 0.534
45 | NCI-H1651 | 1.07 | 0.958 | 0.985 | –
46 | NCI-H1666 | 0.992 | 0.913 | 0.985 | 0.844
47 | NCI-H1734 | – | 0.97 | 0.909 | 0.618
48 | NCI-H1755 | 1.04 | – | 0.973 | 0.936
49 | NCI-H1792 | 0.877 | 0.843 | 0.892 | 0.773
50 | NCI-H1793 | 1.06 | 0.944 | 1.15 | 0.596

Row | Cell Line | relative viability (0.08 µM) | relative viability (0.253 µM) | relative viability (2.53 µM) | relative viability (8 µM)
51 | NCI-H1915 | 0.956 | 0.894 | 0.934 | 0.945
52 | NCI-H1944 | 0.923 | 0.927 | 0.932 | 0.734
53 | NCI-H1975 | 1.05 | 0.889 | 1.1 | 1.03
54 | NCI-H1993 | 1.09 | 0.968 | 1.19 | 0.812
55 | NCI-H2009 | 0.951 | 0.786 | 0.924 | 0.731
56 | NCI-H2023 | 1.15 | 0.89 | 1.07 | 0.425
57 | NCI-H2085 | 1.06 | 0.972 | 1.04 | 0.895
58 | NCI-H2087 | 1.12 | – | 0.927 | 0.4
59 | NCI-H2126 | 1.02 | 0.997 | 1.07 | 1
60 | NCI-H2170 | 1 | 0.875 | 0.943 | 0.782
61 | NCI-H2228 | 1.17 | 0.736 | 0.941 | 0.714
62 | NCI-H2342 | – | 0.728 | – | 0.656
63 | NCI-H2347 | 1.11 | 0.964 | 1.01 | 0.944
64 | NCI-H2405 | 1.12 | 0.89 | 1.06 | 0.74
65 | NCI-H3122 | 0.994 | 1.01 | 0.977 | 0.881
66 | PC-3 [JPC-3] | 1.15 | 0.973 | 1.09 | –
67 | PC-14 | 1.07 | 0.928 | 1.05 | –
68 | RERF-LC-KJ | 1.01 | 0.903 | 0.976 | 0.941
69 | SK-LU-1 | 1.15 | 0.876 | 0.92 | 0.655
70 | SK-MES-1 | 1.04 | 0.936 | 0.997 | 0.752
71 | SW 900 | 0.996 | 0.781 | 1.13 | 0.865
72 | SW 1573 | 1.03 | 0.98 | 0.877 | 0.456
73 | UMC-11 | 1.03 | 0.907 | 0.917 | 0.648
